Read-outs that look alike come from different tables or passages of the source.
Columns and labels:
[1] = tested on: SARS-CoV-2 Wuhan type (SARS-CoV-2PR-1); assay: SARS-CoV-2 replication in Caco-2 cells, qRT-PCR; format: cell-based; conditions: Severe acute respiratory syndrome coronavirus 2, 3 dpi
[2] = tested on: Calu-3 cells; assay: WST-1 cell viability assay; format: cell-based, human; conditions: uninfected Calu-3, three days
Procedure: (§1) To control for potential unspecific effects of PAM treatment on cell viability, water-soluble tetrazolium salt (WST)-1 assays were performed in uninfected Vero B4, A549-ACE2/TMPRSS2+, Caco-2, or Calu-3 cells under otherwise identical conditions as the virus infection experiments. […] Staurosporine (StS) was used as a positive control at a concentration of 1 µM. DMSO as a solvent control was added in the same amount as the respective highest concentration of PAM.
(§2) Following treatment with different concentrations of PAM (PAM concentrations are indicated at the x-axis) for three days, the influence on cell viability was measured by water-soluble tetrazolium salt (WST)-1 assay. […] Staurosprine (StS, 1 µM) was used as a positive control. DMSO as solvent control was added in the same amount as in the highest concentration of PAM (100 µM (A,B); 1000 µM (C,D)).
(§3) Viability of uninfected and treated cells was assessed by the water-soluble tetrazolium salt (WST)-1 assay (Roche, Basel, Switzerland) according to the manufacturer’s instructions. Cells were treated for 72 h with various inhibitors according to the protocols of the infection experiments.

[3] = tested on: SARS-CoV-2 Wuhan Type, Delta, or Omicron; assay: Combination treatment in Calu-3 cells, summary over the three viruses, qRT-PCR; format: cell-based; conditions: single treatment
[4] = tested on: SARS-CoV-2 Gamma; assay: VoC replication in Calu-3 cells, qRT-PCR; format: cell-based; conditions: Severe acute respiratory syndrome coronavirus 2
[5] = tested on: SARS-CoV-2 Wuhan type; assay: SARS-CoV-2 replication, summary over Vero B4, A549-ACE2+/TMPRSS2+, Caco-2 and Calu-3 cells, qRT-PCR; format: cell-based; conditions: for IC90: Severe acute respiratory syndrome coronavirus 2, Wuhan type, Vero B4, A549-ACE2+/TMPRSS2+, Caco-2, Calu-3, read-out: IC90 values, range among all investigated cell lines
[6] = tested on: Caco-2 cells; assay: WST-1 cell viability assay; conditions: uninfected Caco-2, three days
[7] = tested on: SARS-CoV-2 Alpha; assay: VoC replication in Calu-3 cells, qRT-PCR; format: cell-based; conditions: Severe acute respiratory syndrome coronavirus 2
[8] = tested on: SARS-CoV-2 Delta; assay: VoC replication in Calu-3 cells, qRT-PCR; format: cell-based; conditions: for IC50 / IC90: Severe acute respiratory syndrome coronavirus 2, […]
[9] = tested on: SARS-CoV-2 Wuhan type (SARS-CoV-2PR-1); assay: SARS-CoV-2 replication in A549-ACE2+/TMPRSS2+ cells, qRT-PCR; format: cell-based; conditions: Severe acute respiratory syndrome coronavirus 2, 3 dpi
[10] = tested on: SARS-CoV-2 Wuhan type (SARS-CoV-2PR-1); assay: SARS-CoV-2 replication in Vero B4 cells, virions in supernatant by qRT-PCR; format: cell-based; conditions: for IC50: MOI 2 × 10^−2
[11] = tested on: SARS-CoV-2 VoCs Alpha, Beta, Gamma, Delta, and Omicron; assay: VoC replication in Calu-3 cells, summary over all VoCs, qRT-PCR; format: cell-based; conditions: for IC90: Severe acute respiratory syndrome coronavirus 2, read-out: IC90, range over VoCs
[12] = tested on: SARS-CoV-2 Beta; assay: VoC replication in Calu-3 cells, qRT-PCR; format: cell-based; conditions: Severe acute respiratory syndrome coronavirus 2
[13] = tested on: SARS-CoV-2 Wuhan type (SARS-CoV-2PR-1); assay: SARS-CoV-2 replication in Calu-3 cells, qRT-PCR; format: cell-based; conditions: for IC50 / IC90: Severe acute respiratory syndrome coronavirus 2, Calu-3, Wuhan type, 3 dpi
[14] = tested on: SARS-CoV-2 Wuhan type (SARS-CoV-2PR-1); assay: Quantitative immunofluorescence of SARS-CoV-2 nucleoprotein (NP) in infected Calu-3 cells; format: cell-based; conditions: 30 h treatment, increasing concentrations
Procedure: In addition, and to confirm the results obtained from the qRT-PCR analysis of the cell culture supernatants, Calu-3 cells were infected with the wildtype isolate SARS-CoV-2PR-1 at the same MOI (Figure 1) and subsequently treated with different concentrations of PAM for 30 h. Cells were fixed and further stained with a SARS-CoV-2 nucleoprotein (NP)-specific antibody. RDV was used as a positive control at 1 µM (Figure S1, see Supplementary Materials).
For immunostaining, infected Calu-3 cells were fixed with 4% PFA for 15 min. Following a washing step with PBS, cells were blocked and permeabilized overnight with 1% BSA in PBS (+0.2% Triton) and afterwards stained with a polyclonal rabbit anti-NP antibody (GeneTex, Cat. No. GTX135357, Irvine, CA, USA) for 24 h. […] For analysis, immunostaining was quantitative analyzed with a PerkinElmer VictorX4 reader (488 nm) (PerkinElmer, Waltham, MA, USA) and pictures were taken using a CTL-ELISPOT reader (Cellular Technology Ltd., Shaker Heights, OH, USA).
Figure S1. […] Quantitative immunofluorescent microscopy was performed to detect the viral nucleocapsid protein in Calu-3 cells 30 hrs post-infection with SARS-CoV-2 Wuhan type using an Alexa488-conjugated anti-SARS-CoV-2 nucleo-protein (NP)-antibody or DAPI as a control. […]

[15] = tested on: SARS-CoV-2 Omicron (SARS-CoV-2OM); assay: VoC replication in Calu-3 cells, qRT-PCR; format: cell-based
[16] = tested on: uninfected Vero B4, A549-ACE2/TMPRSS2+, Caco-2, or Calu-3 cells; assay: WST-1 cell viability assay, all cell types; format: cell-based; conditions: three days
Procedure: as §1, §2, §3

[17] = parameters: method as in PMID 34580086; conditions: use of Pio, after a COVID-19 diagnosis, cited from earlier work
[18] = tested on: SARS-CoV-2; conditions: Vero E6 cells; published; cited from earlier work
[19] = tested on: SARS-CoV-2; conditions: Calu-3; published; cited from earlier work
[20] = Severe acute respiratory syndrome coronavirus 2, Vero B4, Wuhan type, 3 dpi
[21] = Severe acute respiratory syndrome coronavirus 2, Calu-3
[22] = Severe acute respiratory syndrome coronavirus 2, Calu-3, Calu-3, […]

SMILES | IC50 [1] | TD50 [2] | IC50 [4] | IC90 [4] | IC90 [5] | TD50 [6] | IC50 [7] | IC90 [7] | IC50 [8] | IC90 [8] | IC50 [9] | IC50 [10, 20] | IC90 [11] | IC50 [12] | IC90 [12] | inhibition at 0.05 µM [13, 21] | IC50 [13] | IC90 [13] | IC50 [15, 22] | IC90 [15, 22] | also measured
Cn1c(=O)c(Oc2ccc(F)cc2F)cc2cnc(NC(CCO)CCO)nc21 [PAM, Pamapimod] | ~250 nM | ~ 1000 µM | ~250 nM | ~3000 nM | 2000 to 3000 nM | ~ 1000 µM | ~250 nM | ~3000 nM | ~250 nM | ~4000 nM | ~200 nM | ~200 nM | 3000 to 4000 nM | ~250 nM | ~3000 nM | 33.9% | ~100 nM | ~3000 nM | ~250 nM | ~2000 nM | IC90 [1]: ~3000 nM; reduction of virus replication, max. ([3]; 50 nM PAM, Figure 7B): ≤ 33%; production of progeny virions ([5]; at a concentration of 6.25 µM, all infected cell lines): almost completely blocked; inhibition at 0.01 µM ([8]; Severe acute respiratory syndrome coronavirus 2, PAM 0.01 µM, Pio 0 µM, Fig 7D): 2.86%; inhibition at 0.05 µM ([8]; Severe acute respiratory syndrome coronavirus 2, PAM 0.05 µM, Pio 0 µM, Fig 7D): 27.6%; IC90 [9]: ~2000 nM; IC90 ([10]; Severe acute respiratory syndrome coronavirus 2, Vero B4, Wuhan type, 3 dpi, read-out: IC90): ~2000 nM; IC50 ([11]; Severe acute respiratory syndrome coronavirus 2): ~250 nM; inhibition at 0.01 µM [13, 21]: 10.5%; SARS-CoV-2 replication within infected cells (NP staining normalized to DAPI) [14]: effectively suppressed SARS-CoV-2 replication in a dose-dependent manner; IC90 ([15]; Calu-3, […]): ~3000 nM; inhibition at 0.01 µM ([15]; Severe acute respiratory syndrome coronavirus 2, PAM 0.01 µM, Pio 0 µM, Calu-3, Fig 7F): 3.6%; inhibition at 0.05 µM ([15]; Severe acute respiratory syndrome coronavirus 2, PAM 0.05 µM, Pio 0 µM, Calu-3, Fig 7F): 28.6%; impact on cell viability ([16]; concentrations up to 100 µg/mL): no impact on cell viability
CCc1ccc(CCOc2ccc(CC3SC(=O)NC3=O)cc2)nc1 (centres unmarked) [Pio, Pioglitazone] | ~700 nM | 500 to 1000 µM | ~700 nM | ~15000 nM | 8000 to 10000 nM | 500 to 1000 µM | ~800 nM | ~15000 nM | ~500 nM | ~12000 nM | ~1000 nM | ~500 nM | 12000 to 15000 nM | ~900 nM | ~15000 nM | 15.9% | ~800 nM | ~10000 nM | ~900 nM | ~10000 nM | reduction of viral replication, max. ([3]; 300 nM Pio, Figure 7D): ≤ 48%; SARS-CoV-2 replication ([5]; at ~80 µM, all test settings): completely suppresses; hospital admissions ([17]; vs. 28.2% comparator): 20.0%; RR of hospital admissions [17]: 0.71; inhibition at 0.02 µM ([8]; Severe acute respiratory syndrome coronavirus 2, PAM 0 µM, Pio 0.02 µM, Fig 7D): 0.48%; inhibition at 0.05 µM ([8]; Severe acute respiratory syndrome coronavirus 2, PAM 0 µM, Pio 0.05 µM, Fig 7D): 12.2%; inhibition at 0.1 µM ([8]; Severe acute respiratory syndrome coronavirus 2, PAM 0 µM, Pio 0.1 µM, Fig 7D): 32.4%; inhibition at 0.3 µM ([8]; Severe acute respiratory syndrome coronavirus 2, PAM 0 µM, Pio 0.3 µM, Fig 7D): 46.9%; IC90 ([10]; Severe acute respiratory syndrome coronavirus 2, Vero): ~8000 nM; inhibition at 0.02 µM [13, 21]: 4.64%; inhibition at 0.1 µM [13, 21]: 36.9%; inhibition at 0.3 µM [13, 21]: 48.3%; IC50 ([15]; Calu-3, […]): ~700 nM; inhibition at 0.02 µM ([15]; Severe acute respiratory syndrome coronavirus 2, PAM 0 µM, Pio 0.02 µM, Calu-3, Fig 7F): 1.44%; inhibition at 0.05 µM ([15]; Severe acute respiratory syndrome coronavirus 2, PAM 0 µM, Pio 0.05 µM, Calu-3, Fig 7F): 12.2%; inhibition at 0.1 µM ([15]; Severe acute respiratory syndrome coronavirus 2, PAM 0 µM, Pio 0.1 µM, Calu-3, Fig 7F): 27.1%; inhibition at 0.3 µM ([15]; Severe acute respiratory syndrome coronavirus 2, PAM 0 µM, Pio 0.3 µM, Calu-3, Fig 7F): 44%; impact on cell viability ([16]; concentrations up to ~80 µM): no impact on cell viability
CCC(CC)COC(=O)[C@H](C)N[P@](=O)(OC[C@H]1O[C@@](C#N)(c2ccc3c(N)ncnn23)[C@H](O)[C@@H]1O)Oc1ccccc1 [Remdesivir] | – | – | – | – | – | – | – | – | – | – | – | – | – | – | – | – | – | – | – | – | IC90 [18]: 3000 nM; IC90 [19]: 1280 nM

Source: article PMC9224751 (International Journal of Molecular Sciences, 2022)
